{"source": "patent US5141947A", "about": "“Fibrinolysis-enhancing agents” (Mitsubishi Kasei Corporation, priority 1984, dated 1992)", "key": {"[1]": {"test_system": "thrombus in carotid artery of rabbit", "test": "in vivo thrombolysis by t-PA, rabbit carotid artery thrombus (Example 4)", "conditions": "Compound (Ia) 1.2 mg/kg alone", "description": "The carotid artery of a rabbit was exposed from the surrounding tissue under anesthesia by pentobarbital. The exposed artery was surrounded with absorbent cotton soaked with glacial acetic acid and allowed to stay for 3 hours to form thrombus by the damage done to the endorthelium. The thus formed thrombus was tested for dissolution. Immediately after removing out the cotton, physiological saline in which the substance to be tested had been dissolved was injected through the femoral vein. The infusion was continued over 2 hours. After the infusion, the arterial segment wherein the thrombus had been formed was cut out and the thrombus mass was removed out under a microscope. The thrombus was dissolved in alkali and the protein was quantitatively measured by phenol method."}, "[2]": {"test_system": "fibrinolysis of plasma by t-PA (tissue plasminogen activator)", "test": "fibrinolysis of plasma aggregation effected by t-PA; 0.15 ml plasma in 0.7 ml total (Examples 2 and 3)", "type": "biochemical, healthy person (human)", "description": "(§1) One part by volume of 3.8% sodium citrate solution was added to 9 parts by volume of the venous blood of a healthy person and centrifuged at 3,000 rpm for 15 minutes to collect the plasma.\n(§2) There was placed 0.6 ml of the plasma into a spectrophotometric microcell having a path length of 10 mm and a path width of 2 mm. After adding 0.015 ml of physiological saline containing the compound (Ia) in various concentrations, the cell was held in the cell holder of a spectrophotometer, Hitachi 220 A, which was maintained at 37° C. and incubated for 5 minutes. Into the cell, there was added 0.025 ml of a solution of 8.0 μg/ml t-PA (tissue plasminogen activator) or 3,000 international units per ml high molecular weight UK, urokinase manufactured by The Green Cross Corporation, and […] CaCl2 solution. Changes in the absorbance at 608 nm were recorded at 37° C. every one minute. Thus, the coagulation and fibrinolysis of the plasma were measured with the time lapse.\n(§3) The coagulation time is defined as a time period from the time 0 at which CaCl2 solution is added to a coagulation initiation time at which the absorbance has increased to a value larger by 0.025 than the value at the time 0: i.e., delta A is 0.025. The dissolution time is defined as a time period from the coagulation initiation time to a fibrinolysis termination time at which the absorbance has decreased to a value 10% that of the maximum value.\n(§4) The procedures of Example 1 were repeated except that a less amount cf plasma was used. Thus, in the same manner as Example 1, there was collected 0.15 ml of plasma to which 0.1 ml of physiological saline containing the compound (Ia) in various concentrations was added, the total volume was adjusted to 0.375 ml, the resulting mixture was incubated at 37° C. for 5 minutes, 0.025 ml of a solution of 1.6 μg/ml t-PA or 500 international units per ml high molecular weight UK and 0.3 ml of 0.025M CaCl2 solution were added, and the coagulation and fibrinolysis of the plasma were measured with the time lapse to determine the coagulation time and dissolution time.\nActivities of arginine derivatives having the thrombin-inhibiting effect and the structural formula shown below on the fibrinolysis by t-PA were estimated in the same manner as Example 2."}, "[3]": {"test_system": "fibrinolysis of plasma by UK (urokinase)", "test": "fibrinolysis of plasma aggregation effected by UK; 0.15 ml plasma in 0.7 ml total (Example 2)", "type": "biochemical, healthy person (human)", "description": "as §1, §2, §3, §4"}, "[4]": {"test_system": "fibrinolysis of plasma by t-PA (tissue plasminogen activator)", "test": "fibrinolysis of plasma aggregation effected by t-PA; 0.6 ml plasma in 0.7 ml total (Example 1)", "type": "biochemical, healthy person (human)", "conditions": "for Coagulation Time / Dissolution Time: n=5, average ± S.E.M.", "description": "as §1, §2\n(§5) In the FIGURE, the ordinate represents the difference of absorbance (ΔA) at 608 nm and the abscissa represents the time in minutes.\n(§6) The effects of the compound (Ia) on the dissolution time and the coagulation time were measured on the plasma from five healthy persons. […] Values in Tables are expressed in the average+S.E.M.\nas §3"}, "[5]": {"test_system": "fibrinolysis of plasma by UK (urokinase)", "test": "fibrinolysis of plasma aggregation effected by UK; 0.6 ml plasma in 0.7 ml total (Example 1)", "type": "biochemical, healthy person (human)", "conditions": "for Coagulation Time / Dissolution Time: n=5, average ± S.E.M.", "description": "as §1, §2, §5, §6, §3"}, "[6]": {"test": "acute toxicity, LD50, intravenous, male mice", "conditions": "mouse, in vivo, male mice weighing 20 g", "description": "The arginine derivative of the formula (Ia) above was prepared in accordance with Example 2 described in the European Patent Application Publication No. 8746."}, "[7]": {"conditions": "Table 5, 0.3 μM, control 2.9 min"}, "[8]": {"conditions": "Table 5, 0.3 μM, control 95.7 min"}}}
{"smiles": "CC1CNc2c(cccc2S(=O)(=O)N[C@@H](CCCNC(=N)N)C(=O)N2CC[C@@H](C)C[C@@H]2C(=O)O)C1", "note": "(stereo partly drawn) [Compound (Ia), (2R, 4R)-1-[N^2-(3-methyl-1,2,3,4-tetrahydro-8-quinolinesulfonyl)-L-arginyl]-4-methyl-2-piperidinecarboxylic acid]", "values": [{"measurement": "thrombolytic effect", "setting": "[1]", "value": "no thrombolytic effect"}, {"measurement": "Thrombus Protein", "setting": "[1]; 2 h infusion, femoral vein, n=4, saline control 1.97 ± 0.38", "value": "2.03 ± 0.55", "unit": "mg"}, {"measurement": "Coagulation Time", "setting": "[2]; 0.01 μM", "value": "prolonged slightly"}, {"measurement": "Coagulation Time", "setting": "[2]; 0.01 μM, n=5", "value": "4.5 ± 0.2", "unit": "min"}, {"measurement": "Dissolution Time", "setting": "[2]; 0.01 μM, n=5", "value": "64.1 ± 10.2", "unit": "min"}, {"measurement": "Coagulation Time", "setting": "[2]; 0.03 μM, n=5", "value": "5.0 ± 0.2", "unit": "min"}, {"measurement": "Dissolution Time", "setting": "[2]; 0.03 μM, n=5", "value": "51.6 ± 7.7", "unit": "min"}, {"measurement": "Coagulation Time", "setting": "[2]; 0.1 μM, n=5", "value": "6.7 ± 0.3", "unit": "min"}, {"measurement": "Dissolution Time", "setting": "[2]; 0.1 μM, n=5", "value": "34.5 ± 5.2", "unit": "min"}, {"measurement": "dissolution time decreased to fraction of the time without addition", "setting": "[2]; 0.3 μM", "value": "about 1/3"}, {"measurement": "Coagulation Time", "setting": "[2]; 0.3 μM, n=5", "value": "9.0 ± 0.3", "unit": "min"}, {"measurement": "Dissolution Time", "setting": "[2]; 0.3 μM, n=5", "value": "26.6 ± 2.4", "unit": "min"}, {"measurement": "fibrinolysis", "setting": "[2]; as low as 0.01 μM", "value": "enhanced"}, {"measurement": "Coagulation Time", "setting": "[3]; 0.01 μM", "value": "prolonged slightly"}, {"measurement": "Coagulation Time", "setting": "[3]; 0.01 μM, n=5", "value": "4.9 ± 0.6", "unit": "min"}, {"measurement": "Dissolution Time", "setting": "[3]; 0.01 μM, n=5", "value": "63.8 ± 11.8", "unit": "min"}, {"measurement": "Coagulation Time", "setting": "[3]; 0.03 μM, n=5", "value": "5.5 ± 0.4", "unit": "min"}, {"measurement": "Dissolution Time", "setting": "[3]; 0.03 μM, n=5", "value": "35.9 ± 5.7", "unit": "min"}, {"measurement": "Coagulation Time", "setting": "[3]; 0.1 μM, n=5", "value": "7.4 ± 0.8", "unit": "min"}, {"measurement": "Dissolution Time", "setting": "[3]; 0.1 μM, n=5", "value": "23.4 ± 2.2", "unit": "min"}, {"measurement": "dissolution time decreased to fraction of the time without addition", "setting": "[3]; 0.3 μM", "value": "about 1/4"}, {"measurement": "Coagulation Time", "setting": "[3]; 0.3 μM, n=5", "value": "9.9 ± 0.8", "unit": "min"}, {"measurement": "Dissolution Time", "setting": "[3]; 0.3 μM, n=5", "value": "22.5 ± 1.3", "unit": "min"}, {"measurement": "fibrinolysis", "setting": "[3]; as low as 0.01 μM", "value": "enhanced"}, {"measurement": "dissolution time, in comparison with no addition", "setting": "[4]; 0.1 μM or 0.3 μM", "value": "significantly reduced"}, {"measurement": "Coagulation Time", "setting": "[4]; 0.1 μM", "value": "10.6 ± 2.0", "unit": "min"}, {"measurement": "Dissolution Time", "setting": "[4]; 0.1 μM", "value": "33.0 ± 2.0", "unit": "min"}, {"measurement": "Coagulation Time", "setting": "[4]; 0.3 μM", "value": "13.8 ± 2.8", "unit": "min"}, {"measurement": "Dissolution Time", "setting": "[4]; 0.3 μM", "value": "32.0 ± 2.8", "unit": "min"}, {"measurement": "dissolution time, in comparison with no addition", "setting": "[5]; 0.1 μM or 0.3 μM", "value": "significantly reduced"}, {"measurement": "Coagulation Time", "setting": "[5]; 0.1 μM", "value": "8.8 ± 1.1", "unit": "min"}, {"measurement": "Dissolution Time", "setting": "[5]; 0.1 μM", "value": "28.2 ± 5.2", "unit": "min"}, {"measurement": "Coagulation Time", "setting": "[5]; 0.3 μM", "value": "10.2 ± 1.4", "unit": "min"}, {"measurement": "Dissolution Time", "setting": "[5]; 0.3 μM", "value": "24.6 ± 4.3", "unit": "min"}, {"measurement": "LD50", "setting": "[6]", "value": 211, "unit": "mg/kg"}]}
{"smiles": "Cc1ccc2ccc(S(=O)(=O)N[C@@H](CCCNC(=N)N)C(=O)N3CCC(C)CC3C(=O)O)cc2c1", "note": "(stereo partly shown) [Compound 4]", "values": [{"measurement": "Coagulation Time", "setting": "[2]; [7]", "value": 3.1, "unit": "min"}, {"measurement": "Dissolution Time", "setting": "[2]; [8]", "value": 50.5, "unit": "min"}]}
{"smiles": "COc1ccc2ccc(S(=O)(=O)N[C@@H](CCCNC(=N)N)C(=O)N3CCC(C)CC3C(=O)O)cc2c1", "note": "(stereo partly shown) [Compound 2]", "values": [{"measurement": "Coagulation Time", "setting": "[2]; [7]", "value": 4.1, "unit": "min"}, {"measurement": "Dissolution Time", "setting": "[2]; [8]", "value": 36.5, "unit": "min"}]}
{"smiles": "CCC1CCN(C(=O)[C@H](CCCNC(=N)N)NS(=O)(=O)c2ccc3cc(OC)c(OC)cc3c2)C(C(=O)O)C1", "note": "(stereo partly shown) [Compound 3]", "values": [{"measurement": "Coagulation Time", "setting": "[2]; [7]", "value": 3.2, "unit": "min"}, {"measurement": "Dissolution Time", "setting": "[2]; [8]", "value": 53.4, "unit": "min"}]}
{"smiles": "COCCN(CC(=O)O)C(=O)[C@H](CCCNC(=N)N)NS(=O)(=O)c1ccc2cc(OC)c(OC)cc2c1", "note": "[Compound 1]", "values": [{"measurement": "Coagulation Time", "setting": "[2]; [7]", "value": 3.2, "unit": "min"}, {"measurement": "Dissolution Time", "setting": "[2]; [8]", "value": 55.4, "unit": "min"}]}
